Data: the Kinase Knowledgebase extract (Sharma et al. 2016)

What follows are compounds tested against EGFR (human) (UniProt P00533). Conditions: a431.
Sequence of EGFR (human) (P00533 whole entry, looked up): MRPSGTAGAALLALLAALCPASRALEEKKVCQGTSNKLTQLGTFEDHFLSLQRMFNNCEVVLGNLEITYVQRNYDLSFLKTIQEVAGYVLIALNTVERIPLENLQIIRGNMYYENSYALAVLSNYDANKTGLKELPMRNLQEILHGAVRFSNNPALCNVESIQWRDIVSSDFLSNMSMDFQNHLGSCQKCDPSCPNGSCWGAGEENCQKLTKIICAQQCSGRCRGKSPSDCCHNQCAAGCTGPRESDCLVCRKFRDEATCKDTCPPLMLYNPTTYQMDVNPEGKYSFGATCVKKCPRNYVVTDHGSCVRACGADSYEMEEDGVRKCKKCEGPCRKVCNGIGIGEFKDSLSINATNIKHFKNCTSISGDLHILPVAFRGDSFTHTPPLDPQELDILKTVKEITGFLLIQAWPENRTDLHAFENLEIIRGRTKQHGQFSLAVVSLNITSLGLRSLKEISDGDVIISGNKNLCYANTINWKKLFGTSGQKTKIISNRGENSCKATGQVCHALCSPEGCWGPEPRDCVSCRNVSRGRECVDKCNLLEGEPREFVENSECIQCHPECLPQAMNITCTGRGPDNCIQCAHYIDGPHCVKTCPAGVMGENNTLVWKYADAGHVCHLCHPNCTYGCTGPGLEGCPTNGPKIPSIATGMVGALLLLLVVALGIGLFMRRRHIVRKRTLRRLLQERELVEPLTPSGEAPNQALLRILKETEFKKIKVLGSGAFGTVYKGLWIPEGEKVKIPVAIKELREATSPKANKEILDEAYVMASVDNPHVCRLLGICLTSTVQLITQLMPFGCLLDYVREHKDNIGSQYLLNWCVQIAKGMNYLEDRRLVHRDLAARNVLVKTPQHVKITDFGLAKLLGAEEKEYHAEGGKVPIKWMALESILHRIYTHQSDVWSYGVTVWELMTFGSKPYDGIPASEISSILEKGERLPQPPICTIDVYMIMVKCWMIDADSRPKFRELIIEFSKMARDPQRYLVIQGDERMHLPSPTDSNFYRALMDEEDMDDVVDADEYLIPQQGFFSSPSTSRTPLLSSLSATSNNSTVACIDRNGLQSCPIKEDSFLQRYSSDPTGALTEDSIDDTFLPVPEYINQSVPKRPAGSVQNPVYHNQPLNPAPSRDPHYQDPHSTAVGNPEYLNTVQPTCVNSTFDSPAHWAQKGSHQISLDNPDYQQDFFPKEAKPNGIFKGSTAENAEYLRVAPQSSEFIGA

In order of rising IC50:
1. COC(=O)/C=C\C(=O)N1CC(Oc2cc3c(Nc4cccc(Cl)c4F)ncnc3cc2OC)C1  1 nM
2. C=C(CN1CCN(C)CC1)C(=O)N1CC(Oc2cc3c(Nc4ccc(F)c(Cl)c4F)ncnc3cc2OC)C1  1 nM
3. C=CC(=O)N1CC[C@@H](Oc2cc3c(Nc4ccc(Br)cc4F)ncnc3cc2OC)C[C@@H]1C(N)=O  1.1 nM
4. C=CC(=O)N1CC[C@@H](Oc2cc3c(Nc4ccc(F)c(Cl)c4F)ncnc3cc2OC)C[C@@H]1C(=O)NO  1.7 nM
5. C=CC(=O)N1CC[C@H](Oc2cc3c(Nc4ccc(F)c(Cl)c4F)ncnc3cc2OC)C[C@H]1C(=O)NC  2.2 nM
6. C=CC(=O)N1CC[C@@H](Oc2cc3c(Nc4ccc(F)c(Cl)c4F)ncnc3cc2OC)C[C@@H]1C(=O)NCCS(C)(=O)=O  2.4 nM
7. C=C(CN1CCCCC1)C(=O)N1CC(Oc2cc3c(Nc4cccc(Cl)c4F)ncnc3cc2OC)C1  2.4 nM
8. C=C(CN(C)C)C(=O)N1CCC(Oc2cc3c(Nc4ccc(F)c(Cl)c4F)ncnc3cc2OC)CC1  2.7 nM
9. C=CC(=O)N1CCC(Oc2cc3c(Nc4cccc(Cl)c4OC)ncnc3cc2OC)CC1  3 nM
10. C=CC(=O)N1CCC(Oc2cc3c(Nc4cccc(C#N)c4)ncnc3cc2OC)CC1  3.7 nM
11. C=CC(=O)N1CCC(Oc2cc3c(Nc4ccc(F)c(Cl)c4F)ncnc3cc2OCCCN2CCOCC2)CC1  4 nM
12. C=C(CN(C)C)C(=O)N1CCC(Oc2cc3c(Nc4ccc(Cl)c(Cl)c4F)ncnc3cc2OC)CC1  4 nM
13. COc1cc2ncnc(Nc3ccc(F)c(Cl)c3F)c2cc1O[C@H]1CCN(C(=O)/C=C/CN(C)C)C1  4 nM
14. C=CC(=O)N1CCC(Oc2cc3c(Nc4ccc(Cl)cc4)ncnc3cc2OC)CC1  4.6 nM
15. C=CC(=O)N1CC[C@H](Oc2cc3c(Nc4ccc(F)c(Cl)c4F)ncnc3cc2OC)C[C@H]1C(=O)OC  5 nM
16. C=CC(=O)N1CCCC(Oc2cc3c(Nc4ccc(F)c(Cl)c4F)ncnc3cc2OC)C1 (stereo not given)  6 nM
17. COc1cc2ncnc(Nc3ccc(F)c(Cl)c3F)c2cc1OC1CCN(C(=O)/C=C\CN(C)C)CC1  6 nM
18. C=CC(=O)N1CCC(Oc2cc3c(Nc4ccc(Br)c(F)c4)ncnc3cc2OC)CC1  7 nM
19. C=CC(=O)N1CC[C@H](Oc2cc3c(Nc4ccc(F)c(Cl)c4F)ncnc3cc2OC)C[C@H]1C(=O)NC(C)C  7.5 nM
20. COc1cc2ncnc(Nc3cccc(Cl)c3F)c2cc1O[C@H]1CCN(C(=O)/C=C/CN(C)C)C1  8 nM
21. COc1cc2ncnc(Nc3ccc(F)c(Cl)c3F)c2cc1O[C@H]1CCN(C(=O)/C=C/CN2CCCC2)C1  8 nM
22. C=CC(=O)N1CCC(Oc2cc3c(Nc4ccc(F)c(C#N)c4)ncnc3cc2OC)CC1  8 nM
23. C=CC(=O)N1CCC(Oc2cc3c(Nc4ccc(F)c(C)c4)ncnc3cc2OC)CC1  8 nM
24. COC(=O)/C=C\C(=O)N1CCC(Oc2cc3c(Nc4ccc(Cl)c(Cl)c4F)ncnc3cc2OC)CC1  8 nM
25. C=CC(=O)N1CC[C@H](Oc2cc3c(Nc4ccc(F)c(Cl)c4F)ncnc3cc2OC)C[C@H]1C(=O)NCC  8 nM
26. COc1cc2ncnc(Nc3cccc(Cl)c3F)c2cc1OC1CN(C(=O)/C=C/CN(C)C)C1  9 nM
27. C=CC(=O)N1CCC(Oc2cc3c(Nc4cccc(Cl)c4C)ncnc3cc2OC)CC1  9 nM
28. COC(=O)/C=C\C(=O)N1CCC(Oc2cc3c(Nc4ccc(F)c(Cl)c4F)ncnc3cc2OC)CC1  9 nM
29. C=C(CN1CCCCC1)C(=O)N1CC(Oc2cc3c(Nc4ccc(F)c(Cl)c4F)ncnc3cc2OC)C1  9.1 nM
30. C=CC(=O)N1CCC(Oc2cc3c(Nc4ccc(OCc5cccc(F)c5)c(Cl)c4)ncnc3cc2OC)CC1  10 nM
31. C=C(CN1CCOCC1)C(=O)N1CCC(Oc2cc3c(Nc4ccc(F)c(Cl)c4F)ncnc3cc2OC)CC1  10 nM
32. C=CC(=O)N1CC[C@H](Oc2cc3c(Nc4ccc(F)c(Cl)c4F)ncnc3cc2OC)C[C@H]1C(=O)NO  10 nM
33. C=CC(=O)N1CCC(Oc2cc3c(Nc4cccc([N+](=O)[O-])c4)ncnc3cc2OC)CC1  11 nM
34. C=CC(=O)N1CCC(Oc2cc3c(Nc4cccc(C(F)(F)F)c4F)ncnc3cc2OC)CC1  11 nM
35. C=CC(=O)N1CC[C@H](Oc2cc3c(Nc4ccc(F)c(Cl)c4F)ncnc3cc2OC)C[C@H]1C(=O)NCCC  12 nM
36. C=CC(=O)N1CC[C@H](Oc2cc3c(Nc4ccc(OCc5ccccn5)c(Cl)c4)ncnc3cc2OC)C1  14 nM
37. COc1cc2ncnc(Nc3ccc(F)c(Cl)c3F)c2cc1OC1CN(C(=O)/C=C\CN(C)C)C1  15 nM
38. C=CC(=O)N1CC[C@H](Oc2cc3c(Nc4ccc(Br)cc4F)ncnc3cc2OC)C1  15 nM
39. C=CC(=O)N1CC[C@H](Oc2ccc3ncnc(Nc4ccc(OCc5cccc(F)c5)c(Cl)c4)c3c2)C1  15 nM
40. C=CC(=O)N1CC(Oc2cc3c(Nc4cccc(C#N)c4)ncnc3cc2OC)C1  17 nM
41. COc1cc2ncnc(Nc3ccc(F)c(Cl)c3F)c2cc1OCCNC(=O)/C=C/CN(C)C  18 nM
42. C=CC(=O)N1CCC(Oc2cc3c(Nc4ccc(C)c(C)c4)ncnc3cc2OC)CC1  19 nM
43. C=CC(=O)N1CC[C@H](Oc2cc3c(Nc4ccc5c(cnn5Cc5cccc(F)c5)c4)ncnc3cc2OC)C1  19 nM
44. C=CC(=O)N1CC[C@H](Oc2cc3c(Nc4ccc(F)c(Cl)c4F)ncnc3cc2OC)C[C@H]1C(=O)NCCCO  20 nM
45. C=CC(=O)N1CCC(Oc2cc3c(Nc4ccc(C(C)C)cc4)ncnc3cc2OC)CC1  23 nM
46. CN(C)C/C=C/C(=O)N1CC[C@H](Oc2ccc3ncnc(Nc4ccc(F)c(Cl)c4F)c3c2)C1  25 nM
47. C=CC(=O)N1CCC(Oc2cc3c(Nc4cccc(CCl)c4)ncnc3cc2OC)CC1  26 nM
48. CCN(CC)C/C=C/C(=O)N1CC[C@H](Oc2cc3c(Nc4ccc(F)c(Cl)c4F)ncnc3cc2OC)C1  28 nM
49. C=C(C)C(=O)N1CC(Oc2cc3c(Nc4ccc(F)c(Cl)c4F)ncnc3cc2OC)C1  29 nM
50. C=CC(=O)N1CCC(Oc2cc3c(Nc4ccc5c(c4)CCC5)ncnc3cc2OC)CC1  29 nM
51. C=CC(=O)N1CCC(Oc2cc3c(Nc4ccc(Cl)cc4O)ncnc3cc2OC)CC1  32 nM
52. COc1cc2ncnc(Nc3ccc(F)c(Cl)c3F)c2cc1O[C@H]1CCN(C(=O)C#CCN(C)C)C1  33 nM
53. C=CC(=O)N1CCC(Oc2cc3c(Nc4ccc(Cl)c(C#N)c4)ncnc3cc2OC)CC1  35 nM
54. COc1cc2ncnc(Nc3ccc(F)c(Cl)c3F)c2cc1OC1CN(C(=O)/C=C/CN(C)C)C1  36 nM
55. CC#CC(=O)N1CC[C@H](Oc2cc3c(Nc4ccc(F)c(Cl)c4F)ncnc3cc2OC)C1  37 nM
56. COc1cc2ncnc(Nc3ccc(F)c(Cl)c3F)c2cc1OC1CCN(C(=O)C=C(C)C)CC1  38 nM
57. COc1cc2ncnc(Nc3ccc(Cl)c(Cl)c3F)c2cc1OC1CCN(C(=O)/C=C/Cl)CC1  39 nM
58. CNC(=O)/C=C/C(=O)N1CC(Oc2cc3c(Nc4ccc(F)c(Cl)c4F)ncnc3cc2OC)C1  41 nM
59. COc1cc2ncnc(Nc3ccc(F)c(Cl)c3F)c2cc1OC1CCN(C(=O)/C=C\C(=O)O)CC1  41 nM
60. C=C(CO)C(=O)N1CCC(Oc2cc3c(Nc4ccc(Cl)c(Cl)c4F)ncnc3cc2OC)CC1  44 nM
61. COc1cc2ncnc(Nc3ccc(F)c(Cl)c3F)c2cc1OC1CN(C(=O)/C=C/Cl)C1  44 nM
62. CNC(=O)/C=C/C(=O)N1CCC(Oc2cc3c(Nc4ccc(F)c(Cl)c4F)ncnc3cc2OC)CC1  48 nM
63. C#Cc1cccc(Nc2ncnc3cc(OC)c(OC4CCN(C(=O)C=C)CC4)cc23)c1  52 nM
64. COc1cc2ncnc(Nc3ccc(F)c(Cl)c3F)c2cc1O[C@H]1CCN(C(=O)C#CCCN2CCN(C)CC2)C1  53 nM
65. C=CC(=O)N1CCC(Oc2cc3c(Nc4cccc(C(F)(F)F)c4)ncnc3cc2OC)CC1  58 nM
66. C=CC(=O)N1CCC(Oc2cc3c(NCc4cccc(Cl)c4)ncnc3cc2OC)CC1  61 nM
67. C=CC(=O)N1CCC(Oc2cc3c(Nc4ccccc4Cl)ncnc3cc2OC)CC1  65 nM
68. COc1cc2ncnc(Nc3cccc(Cl)c3F)c2cc1OC1CCN(C(=O)/C=C/CN(C)C)CC1  76 nM
69. COc1cc2ncnc(Nc3ccc(F)c(Cl)c3F)c2cc1O[C@H]1CCN(C(=O)/C=C/CN2CCOCC2)C1  85 nM
70. C/C=C/C(=O)N1CC[C@H](Oc2cc3c(Nc4ccc(F)c(Cl)c4F)ncnc3cc2OC)C1  85 nM
71. C=CC(=O)N1CCC(Oc2cc3c(Nc4ccc(Cl)c(C)c4)ncnc3cc2OC)CC1  93 nM
72. C=CC(=O)N1CCC(Oc2cc3c(Nc4ccc(Cl)c(O)c4)ncnc3cc2OC)CC1  105 nM
73. C=CC(=O)N1CCC(Oc2cc3c(Nc4ccc(O)c(Cl)c4)ncnc3cc2OC)CC1  109 nM
74. C=CC(=O)N1CCC(Oc2cc3c(Nc4ccc(O)c(F)c4)ncnc3cc2OC)CC1  129 nM
75. C=CC(=O)N1CCC(Oc2cc3c(Nc4cccc(N(C)C)c4)ncnc3cc2OC)CC1  142 nM
76. COc1cc2ncnc(Nc3ccc(Cl)c(Cl)c3F)c2cc1OC1CCN(C(=O)/C=C/CN(C)C)CC1  165 nM
77. C=CC(=O)N1CCC(Oc2cc3c(Nc4ccc(O)cc4Cl)ncnc3cc2OC)CC1  176 nM
78. C=CC(=O)N1CCC(Oc2cc3c(Nc4cc(Cl)c(O)c(Cl)c4)ncnc3cc2OC)CC1  179 nM
79. COc1cc2ncnc(Nc3ccc(F)c(Cl)c3F)c2cc1OC1CCN(C(=O)/C=C/C(=O)NO)CC1  187 nM
80. CC#CC(=O)N1CCC(Oc2cc3c(Nc4ccc(F)c(Cl)c4F)ncnc3cc2OC)CC1  190 nM
81. C=CC(=O)N1CC[C@@H](Oc2cc3c(Nc4ccc(F)c(Cl)c4F)ncnc3cc2OC)C1  222 nM
82. C=CC(=O)N1CCC(Oc2cc3c(Nc4cccc(S)c4)ncnc3cc2OC)CC1  300 nM
83. COc1cc2ncnc(Nc3ccc(Cl)c(Cl)c3F)c2cc1OC1CCN(C(=O)/C=C\C(=O)O)CC1  322 nM
84. C=CC(=O)N1CC(Oc2cc3c(Nc4ccc(F)c(Cl)c4F)ncnc3cc2O)C1  381 nM
85. C=CC(=O)Nc1cccc(Nc2ncnc3cc(OC)c(OC4CCN(C(=O)C=C)CC4)cc23)c1  400 nM
86. C=CC(=O)N1CCC(Oc2cc3c(N[C@H](C)c4ccccc4)ncnc3cc2OC)CC1  514 nM
87. C=CC(=O)N1CC[C@H](Oc2cc3c(Nc4cccc(Cl)c4F)ncnc3cc2OC)C1  531 nM
88. C=CC(=O)NCCOc1cc2c(Nc3ccc(F)c(Cl)c3F)ncnc2cc1OC  699 nM
89. C=CC(=O)N1CC(Oc2cc3c(Nc4ccc(F)c(Cl)c4F)ncnc3cc2OCCOC)C1  883 nM
90. C=CC(=O)N1CC[C@@H](Oc2cc3c(Nc4ccc(F)c(Cl)c4F)ncnc3cc2OC)C[C@@H]1C(=O)O  979 nM
